Series [1] deals with BXPC-3. Kind of series: Cell viability assay (CCK-8). As to conditions: ADCs; CCK-8, 96 hours; cell RMCA [sic], Pancreas; read-out: IC50 (95% Cl). The series is classed as cell-based. The protocol:
(§1) Cell viability was determined using Cell Counting Kit 8 (CCK-8). Cells were seeded into 96-well plates at 3000-10000 cells/well. After incubation overnight, drugs were added at different concentrations. Plates were incubated in a 5% CO2, 37° C. humidified chamber for 96 hours. CCK8 reagent was added thereto and the plates were placed back to the incubator until the absorbance at 450 nm of untreated control cells was greater than 1.0. Growth inhibition was measured as the percent growth relative to untreated cells. Dose response curve was generated from the mean values of two or three tests, and IC50 values were calculated using Prism GraphPad software.
(§2) The anti-tumor efficacy of different payloads on different tumor cell lines was detected by CCK-8, and the results are shown in FIG. 5.

Series [2] has as its system CFPAC-1. The series is described as follows: Cell viability assay (CCK-8). The series is classed as cell-based. As to conditions: ADCs; CCK-8, 96 hours; cell CPAC-1 [sic], Pancreas; read-out: IC50 (95% Cl). Here is the method: as §1, §2
Series [3] concerns COLO205. The series is described as follows: Cell viability assay (CCK-8). Conditions: ADCs; CCK-8, 96 hours; cell printed 'COXC28', Colon; read-out: IC50 (95% Cl). In kind it is cell-based. The protocol: as §1, §2
Series [4] has as its system Capan-1. The series is described as follows: Cell viability assay (CCK-8). In kind it is cell-based. Conditions: ADCs; CCK-8, 96 hours; Cxoo-1 [sic], Pancreas; read-out: IC50 (95% Cl). Here is the method:
as §1, §2

In series [5] the test system is HCC1806. The series is described as follows: Cell viability assay (CCK-8). The series is classed as cell-based. As to conditions: ADCs; CCK-8, 96 hours; 'HOC1906' [sic], Mamary; read-out: IC50 (95% Cl). The protocol:
as §1, §2

In series [6] the test system is HT29. The series is described as follows: Cell viability assay (CCK-8). In kind it is cell-based. Conditions: ADCs; CCK-8, 96 hours; cell '3128' [sic], Colon; read-out: IC50 (95% Cl). The protocol: as §1, §2
In series [7] the test system is MDA-MB-231. Kind of series: Cell viability assay (CCK-8). In kind it is cell-based. As to conditions: ADCs; CCK-8, 96 hours; cell 'SRM-K9-231' [sic], Mamary; read-out: IC50 (95% Cl). Here is the method:
as §1, §2

The subject of series [8] is MDA-MB-468. Kind of series: Cell viability assay (CCK-8). In kind it is cell-based. Conditions: ADCs; CCK-8, 96 hours; SRM-M9-409, Mammary; read-out: IC50 (95% Cl). The protocol: as §1, §2
The subject of series [9] is NCI-H1688. The series is described as follows: Cell viability assay (CCK-8). In kind it is cell-based. Conditions: ADCs; CCK-8, 96 hours; cell 'HCl-11685' [sic], Lung; read-out: IC50 (95% Cl). Here is the method: as §1, §2
The subject of series [10] is NCIH2452. The series is described as follows: Cell viability assay (CCK-8). The series is classed as cell-based. As to conditions: ADCs; CCK-8, 96 hours; cell 'HOC2401' [sic], Lung; read-out: IC50 (95% Cl). Here is the method: as §1, §2
Series [11] relates to SCLC-21H. Kind of series: Cell viability assay (CCK-8). Conditions: ADCs; CCK-8, 96 hours; SRM-C-21H; read-out: IC50 (95% Cl). In kind it is cell-based. Here is the method: as §1, §2
Series [12] deals with SK-MES-1. The series is described as follows: Cell viability assay (CCK-8). The series is classed as cell-based. Conditions: ADCs; CCK-8, 96 hours; cell 'SK-WSS-7' [sic], Lung; read-out: IC50 (95% Cl). Here is the method:
as §1, §2

The subject of series [13] is SKBR3. Kind of series: Cell viability assay (CCK-8). The series is classed as cell-based. As to conditions: ADCs; CCK-8, 96 hours; 'SKERS' [sic], Mammary; read-out: IC50 (95% Cl). Here is the method:
as §1, §2

For series [14], the system named is BXPC-3 cells. The series is described as follows: BXPC-3 mouse transplanted tumor model. In kind it is in vivo, BALB/c nu/nu mice. From the text:
Five-week-old female athymic BALB/c nu/nu mice were purchased from Charles River Company (Shanghai, China), and mice were randomly divided into 5-6 mice/group. Animal handling and procedures were approved and performed in accordance with the requirements of the Institutional Animal Care and Use Committee (IACUC) of Shanghai Institute of Materia Medica, Chinese Academy of Sciences. All models were inoculated subcutaneously on the side of mice. BXPC-3, HCC1806 and NCIH1688 cells were established by injecting and homogenizing 5 × 10^6 cells in Matrigel matrix. COLO205 cells were established by injecting and suspending 1 × 10^7 cells in Matrigel matrix. […] The percentage of inhibition was calculated by the following formula: (1-average tumor volume of the treatment group/average tumor volume of the control group)×100%. Toxicity of the different treatment groups was assessed by monitoring weight loss.
Mice inoculated with BXPC-3 cells (n = 5 per group) were treated with ADC or naked antibody on days 5, 13, and 21, and tumors were measured two or three times a week. On day 25, statistical significance between treatment and control groups was assessed using a two-tailed t-test. ***P<0.001, compared with hRS7 treatment group; *P<0.05, comparing hRS7-VK-PTX treatment group with PTX treatment group; compared with hRS7 treatment group, P<0.001, data=mean ± SD, the results are shown in FIG. 7a.

Series [15] can be described thus: Dose tolerability, single intravenous dose acute toxicity. In kind it is in vivo. Conditions: BALB/c mice. Here is the method:
Dose tolerability assay was performed in BALB/c mice (3 mice per dose). The drug was given in a single intravenous dose. The injection doses of hRS7-VK-PTX were 60, 80 and 100 mg/kg, and the injection doses of hRS7-VK-MMAE were 60 and 80 mg/kg, respectively. Toxicity was assessed by observing mouse behavior, weight loss and survival. The weight change rate (%) was calculated as: (body weight - body weight before treatment)/(body weight before treatment) × 100%.
The safety of relatively high doses of hRS7-VK-PTX in BALB/c mice was studied by an acute toxicity experiment with single intravenous administration in mice.

For orientation: IC50 means the concentration that gives 50% inhibition.

Regarding hRS7-VK-PTX, the IC50 turned out to be 0.633 nM in series [1]; 16.8 nM in series [2]; 4.52 nM in series [3]; 2.98 nM in series [4]; 0.266 nM in series [5]; 3.47 nM in series [6]. The IC50 in series [7] is 1.59 nM; in [8], 2.68 nM; in series [9] it was 32.4 nM; in series [10], 1.4 nM; in [11] it was 2.96 nM; in series [12], 10.1 nM. Moreover, the IC50 in [13] worked out at 1.74 nM. In addition, in series [14] (BXPC-3 xenograft, intraperitoneal, days 5, 13, 21), the “inhibition of transplanted tumor” value was “more effective than hRS7-VK-SN38”. In addition, in series [14] (BxPC-3 model, 3 mg/kg of hRS7-VK-PTX, P = 0.0248), the “inhibition of transplanted tumor compared with PTX” value is on record as “more effective than 10 mg/kg of PTX”. In addition, in series [15] (single 100 mg/kg intravenous dose), the “toxicity or weight loss compared with placebo” value is reported as “no significant toxicity or weight loss”. For the same substance, the “maximum tolerated dose (MTD)” value in [15] (single intravenous dose, highest dose 100 mg/kg) is on record as “not reached”.

Source of the values: US20230346969A1, “INTERMEDIATE FOR PREPARING ANTIBODY-DRUG CONJUGATE (ADC), PREPARATION METHOD THEREFOR, AND USE THEREOF” (priority 2020, published 2023).
